Laboratory results from the METLIN SMRT retention time set (Domingo-Almenara et al. 2019).

experiment: gradient 5% acetonitrile 3 min, to 50% in 2 min, to 85% in 15 min, held 3 min, 100 µL/min; conditions: column: Zorbax Extend-C18 2.1 x 50 mm; eluents: water / acetonitrile, 0.1% formic acid
How it was run: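 Values are retention times taken from adduct peaks that software picked and an analyst inspected. The pure standards were run as mixtures of ~100 molecules on HPLC linked to a quadrupole time-of-flight mass spectrometer, in positive and negative ionization mode. A Zorbax Extend-C18 column (2.1 × 50 mm, 1.8 μm) was used at 100 μL/min with water and acetonitrile, each including 0.1% formic acid.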

Row | SMILES | RP-LC retention time [s]
1 | Cc1ccc(CNC(=O)C2(C)Oc3cccnc3N(C(C)C)C2=O)cc1 (centres undefined) | 982
2 | CCc1nc(-n2cccc2)sc1C(=O)Nc1ccc(OC)c(OC)c1 | 965
3 | CCOC(=O)c1[nH]c(C)c(CCC(=O)N2CCC(C(=O)NCCCN3CCCC(C)C3)CC2)c1C (centres undefined) | 604
4 | Cc1ccc(CN2N=C(C(=O)N3CCOCC3)S(=O)(=O)c3ccc(C)cc32)cc1 | 907
5 | O=C(C1CCCN(c2ccc(Sc3ccc(Br)cc3)nn2)C1)N1CCSCC1 (centres undefined) | 932
6 | COc1ccc(C(=O)NCc2c(C)noc2C)cc1F | 693
7 | CCn1cc(CCN2CCN(C(=O)c3ccc(Br)cc3)CC2)c2cccnc21 | 629
8 | CC(C)N1C(=O)C(C)(C(=O)NCc2ccc(Br)cc2)Oc2cccnc21 (centres undefined) | 1010
9 | CNC(=O)C1CCCN1C(=O)Nc1cccc(C)c1 (centres undefined) | 635
10 | COc1cc(NC(=O)c2cc(C(C)(C)C)n3nccc3n2)cc(OC)c1 | 721
11 | COc1ccc(-c2nnc(-c3cccc(S(=O)(=O)N(C)C)c3)o2)cc1 | 908
12 | COc1ccc(-c2ccc(=O)n(Cc3nc(-c4cccc(Br)c4)no3)n2)cc1 | 997
13 | Cc1ccc(-c2noc(Cn3cnc4c(cnn4-c4ccc(C(C)C)cc4)c3=O)n2)cc1 | 1300
14 | Cc1sc(NC(=O)c2ccccc2)c(C(Nc2ccccn2)c2cccs2)c1C (centres undefined) | 746
15 | O=C(Nc1ccc(Nc2ccccc2)cc1)Nc1ccccc1Cl | 1130
16 | Cc1nn(C(C)C(=O)NCCCN(C)c2ccccc2)c(=O)c2c(C)n(-c3ccccc3)nc12 (centres undefined) | 655
17 | Cc1c(C(=O)NC(C)C)cnn1-c1ccc(-c2nc(C(C)C)no2)cn1 | 931
18 | CCCNC(=O)N(C1CCOCC1)C1CCN(C(=O)c2nn(C)c3ccccc23)CC1 | 1150
19 | COC[C@@H]1CN(Cc2ccc3[nH]ccc3c2)C[C@H]1c1ccncc1 | 581
20 | CCOc1ccc(-c2[nH]ncc2CNS(=O)(=O)Cc2c(F)cccc2Cl)cc1 | 882
21 | Cc1ccc(C)c(NC(=O)N2CCN(c3cc(-c4ccncc4)[nH]n3)CC2)c1 | 615
22 | CCC1Oc2ccc(S(=O)(=O)N3CCC(C(=O)N(CC)Cc4ccccc4)CC3)cc2NC1=O (centres undefined) | 924
23 | CC(C)NC(=O)c1ccc(OCC2CCN(C(=O)c3ccc(C(F)(F)F)cc3)CC2)cc1 | 935

Row | SMILES | RP-LC retention time [s]
24 | COc1cc(NS(=O)(=O)c2c[nH]c3ncccc23)cc(OC)c1 | 707
25 | COC(=O)CC(NC(=O)N1CCCn2nc(-c3ccncc3)cc2C1)c1ccccc1 (centres undefined) | 608
26 | Cc1nc(C)c(C(=O)N2CCC(N3C(=O)C4(CCCC4)C3c3scnc3C)CC2)s1 (centres undefined) | 684
27 | CCOc1ccc(NC(=O)c2c(N3CCCC3=O)c3cc(OC)ccc3n2C)cc1 | 984
28 | CC(=O)Nc1ccc(C2(C(=O)NCc3ccccc3Cl)CCC2)cc1 | 802
29 | O=C(NCC1CCN(Cc2ccccc2)CC1)C(=O)Nc1ccc(OC(F)(F)F)cc1 | 626
30 | CC(C)CC(C(=O)N1CCOCC1)N1CC2=C(C1=O)C(c1ccccc1Cl)NC(=O)N2C (centres undefined) | 894
31 | Fc1cccc(-c2noc(-c3cc(N4CCN(c5ccccn5)CC4)nc4ccccc34)n2)c1 | 962
32 | O=C(NC1CCCC1)C1CCN(C(=O)N2CCOc3ccc(Cl)cc32)CC1 | 841
33 | COC(=O)c1ccc(C(=O)OC)c(=O)[nH]1 | 638
34 | O=C(CCc1ccc2cc[nH]c2c1)NCc1ccc(F)cc1 | 808
35 | COc1ccccc1CNC(=O)Cn1ccc2ccc(N3CCOCC3)nc21 | 858
36 | CCn1cc(S(=O)(=O)N2CC(F)(F)C[C@H]2COc2cccnc2)cn1 | 636
37 | Cc1cc(-c2nnc(-c3ccc(F)cc3)o2)c(C)n1CC(=O)NCC1CCCO1 (centres undefined) | 771
38 | Cc1ccc2[nH]cc(CCNC(=O)CC3CCN(C(=O)NC4CCCCC4)CC3)c2c1 | 808
39 | O=C(CCc1ccccc1)N1CCN(c2cc(-c3cccs3)[nH]n2)CC1 | 808
40 | Cc1nc(-c2cn(C(C)C)c3ncccc23)sc1C(=O)N1CCN(C)CC1 | 611
41 | COc1c(C(=O)Nc2ccc3c(c2)OCO3)sc2cc(Cl)ccc12 | 1180
42 | CCOC(=O)c1ccc(Nc2nc(N3CCCC3)nc(N3CCCC3)n2)cc1 | 772
43 | CCOC(=O)c1cc2c([nH]c1=O)CC(c1cccc(C)c1)CC2=O (centres undefined) | 653
44 | Cc1ccc(Nc2ncccc2S(N)(=O)=O)cc1Cl | 924
45 | COC(=O)c1nnc2c(-c3ccccc3OC)c(C)nn2c1C | 869
46 | COc1ccc(C(=O)NCC(=O)Nc2nc3ccccc3[nH]2)cc1 | 606

Row | SMILES | RP-LC retention time [s]
47 | O=C(CCc1cccc2[nH]ccc12)NCc1ccc(N2CCOCC2)cc1 | 714
48 | O=S(=O)(c1ccc(N2CCN(c3ccccn3)CC2)nn1)C1CCCCC1 | 608
49 | CCn1c(=O)c2ccn(CC(=O)NCc3cc(OC)ccc3OC)c2n(CC)c1=O | 811
50 | CCC(=O)n1nc(-c2ccc(C)c(C)c2)nc1N | 923
51 | Cc1cc2nn(CC(=O)Nc3ccccc3F)c(=O)n2c(Nc2ccccc2)n1 | 985
52 | CCOC(=O)c1c(S(=O)(=O)N2CCC(C(=O)NCc3cccs3)CC2)c(C)n(C)c1C | 774
53 | O=S(=O)(c1ccc(Cl)cc1)N1CCC(c2noc(-c3ccccc3)n2)CC1 | 1170
54 | CCOc1ccccc1-c1noc(-c2nnn3c2COC(c2ccc(F)cc2)C3)n1 (centres undefined) | 1130
55 | Cc1cc(C(=O)N2CCC(N3C(=O)C4(CCCC4)C3c3scnc3C)CC2)n(C)n1 (centres undefined) | 691
56 | O=C(CCCN1C(=O)c2cccc3cccc(c23)C1=O)N1CCN(c2ncccn2)CC1 | 723
57 | CCN(CC)CCNC(=O)c1ccc2nc(C(C)C)oc2c1 | 605
58 | Cc1cc(C(=O)N2CCOCC2)nn1CC(=O)Nc1nc2ccccc2s1 | 683
59 | C=CCN1CCN(c2ccc3nnc(CCc4nc(-c5ccccc5OC)no4)n3n2)CC1 | 573
60 | Cc1noc(-c2ccc(NC(=O)CSc3nnnn3C)cc2)n1 | 665
61 | COCC(C)NC(=O)C(=O)Nc1ccc2c(c1)OCCO2 (centres undefined) | 685
62 | CCC(=O)NCCc1csc(C2CCN(C(=O)C3CCC3)CC2)n1 | 679
63 | COCc1cc(=O)n(CCc2ccccc2)c(N2CCCC2)n1 | 816
64 | Cc1cc(C2CCCN2C(=O)Cc2ccccc2F)no1 (centres undefined) | 723
65 | Cc1ccc(CN2C[C@@H]3C(=O)N(Cc4ccc5c(c4)OCO5)C(=O)[C@@H]3C2)cc1C | 691
66 | CCCc1noc(-c2ccc3nnc(CC(=O)Nc4ccccc4F)n3c2)n1 | 872
67 | CCOC(=O)c1csc(NC(=O)Cc2ccc(S(=O)(=O)CC)cc2)n1 | 681
68 | CN1CCC(OC2CCN(C(=O)c3ccc(Cl)cc3)CC2)CC1 | 601
69 | O=C(NCc1ccc(F)cc1)C(=O)NCC(c1ccc2c(c1)OCO2)N1CCOCC1 (centres undefined) | 648

Row | SMILES | RP-LC retention time [s]
70 | CCc1ccc(NC(=O)N2CCC(CN3CCCC(C)C3)CC2)cc1 (centres undefined) | 662
71 | CCc1cccc(NC(=O)C2CCCN(S(=O)(=O)c3c[nH]c(C(=O)N4CCCCCC4)c3)C2)c1 (centres undefined) | 911
72 | CCc1noc(NC(C)=O)c1-c1ccc(OC)c(S(=O)(=O)Nc2ccc(C)cc2Cl)c1 | 894
73 | COc1ccc(-c2nnc(-c3ccccc3)o2)cc1S(=O)(=O)N1CCSCC1 | 955
74 | O=C(NC1CCCC1)c1nc(-c2cn(-c3ccc(Cl)cc3)nn2)no1 | 837
75 | COc1cc(OC)cc(-c2nc(-c3ccc(NS(=O)(=O)c4cccs4)cc3)no2)c1 | 1120
76 | O=C(Nc1ccc(Cn2cncn2)cc1)c1ccccn1 | 654
77 | O=C(CN1CCCCC1c1nc(-c2cccs2)no1)NCc1ccc(Cl)cc1 (centres undefined) | 1060
78 | Cc1cc(C)cc(-n2ncc3c(N4CCC(C(N)=O)CC4)ncnc32)c1 | 724
79 | Cc1ccc(C)c(N2CCN(C(=O)CN(C)S(=O)(=O)c3ccc4c(c3)CCCC(=O)N4)CC2)c1 | 908
80 | O=C(Cc1csc2nc(-c3cccc(Br)c3)cn12)NCc1ccc(F)cc1 | 909
81 | COCCc1noc(C2Cc3ccccc3N2C(=O)NCc2ccc(OC)cc2)n1 (centres undefined) | 904
82 | COc1cc(OC)cc(N2C(=O)C3N=NN(Cc4nc(-c5ccccc5Cl)no4)C3C2=O)c1 (centres undefined) | 967
83 | CC(C)c1noc(-c2ccnc(-n3cnc(C(=O)NCC4CC4)c3)c2)n1 | 879
84 | Cc1ccc(-c2nc3n(CC(=O)N4CCOCC4)c4c(c(=O)n3n2)CCC4)cc1 | 699
85 | Cn1nnc2cc(-c3noc(CN4C(=O)COc5ccccc54)n3)ccc21 | 803
86 | CCOC(=O)c1nc(N(C)c2cc(C)ccc2C)c2ccccc2n1 | 1010
87 | Cc1ccc(C(=O)N(CCCN)[C@@H](c2oc3cc(Cl)ccc3c(=O)c2Cc2ccccc2)C(C)C)cc1 | 863
88 | Cc1ccc(-n2cc(C3=CCN(CC(=O)NC4CCN(Cc5ccccc5)CC4)CC3)cn2)cc1 | 551
89 | CC(=O)Nc1ccc(-n2cnc(C(=O)N3CCN(c4cccc(Cl)c4)CC3)c2)nc1 | 749
